Measurements reported in patent US20240123079A1 (Seagen Inc., priority 2021, published 2024).

Test system: THP1-Dual™ reporter cells
Experiment: THP1-Dual cell reporter assay (IRF-Lucia luciferase reporter)
Format: cell-based, human
Details: for EC50: Homo sapiens, THP1-Dual, free compounds, 24 h, Lucia reporter signal, read-out: EC50; for EC50 (ng/mL): ADCs: drug linker conjugated to a targeted mAb, 48 h
Protocol: THP1-Dual™ Cell Reporter Assay
Potency of compounds and ADCs was evaluated using the THP1-Dual™ cells (InvivoGen PN: thpd-nfis [also referred to as THP1 dual reporter cells]), which contain an IRF-Lucia luciferase reporter. Cells were cultured in RPMI-1640 (Gibco) with 10% heat-inactivated fetal bovine serum, Pen-Strep (100 U/mL-100 μg/mL, Gibco), HEPES (10 mM, Gibco)), sodium pyruvate (1 mM, Gibco), MEM non-essential amino acids (1×, Gibco), GlutaMAX (1×, Gibco), and beta-mercaptoethanol (55 μM, Gibco). Cells were plated in a 96-well flat bottom tissue culture-treated clear polystyrene plate (Corning Costar #3596) at ˜100,000 cells per well in 200 μL with the indicated concentration of the compound or ADC. The supernatant was harvested at 24 hours (compounds) or 48 hours (ADC) post plating for the reporter assay, or as indicated. To measure Lucia reporter signal, 10 μL of the supernatant was combined with 40 μL of QUANTI-Luc™ Luminescence assay reagent (Invivogen PN: rep-qlc1) in a 96-well clear flat bottom tissue culture-treated black polystyrene plate (Corning Costar #3603) and read on a Perkin Elmer Envision plate reader.
STING agonist compounds were assessed for their ability to activate THP1-Dual™ reporter cells, a human monocytic cell line in which type I interferon (IRF) signaling can be monitored via a secreted luciferase reporter protein (Lucia). THP1-Dual™ cells were treated with increasing concentrations of the agonists for 24h, then supernatants were harvested and the Lucia reporter signal was quantified using QUANTI-Luc™ Luminescence assay reagent.

SMILES | EC50 [µM] | EC50 (ng/mL)
CCc1cc(C(=O)Nc2nc3cc(C(N)=O)cc(O)c3n2C/C=C/Cn2c(NC(=O)c3cc(CC)nn3C)nc3cc(C(N)=O)cc(OC)c32)n(C)n1 [Compound 53] | > 10 | 
COc1cc(C(N)=O)cc2nc(NC(=O)c3cc(C)nn3C)n(C/C=C/Cn3c(NC(=O)c4cc(C)nn4C)nc4cc(C(N)=O)cc(O)c43)c12 [Compound 54] | > 10 | 
COc1cc(C(N)=O)cc2nc(NC(=O)c3cc(C)n[nH]3)n(C/C=C/Cn3c(NC(=O)c4cc(C)n[nH]4)nc4cc(C(N)=O)cc(O)c43)c12 [Compound 55] | > 10 | 
COc1cc(C(N)=O)cc2nc(NC(=O)C3CCCC3)n(C/C=C/Cn3c(NC(=O)C4CCCC4)nc4cc(C(N)=O)cc(O)c43)c12 [Compound 56] | > 10 | 
COc1cc(C(N)=O)cc2nc(NC(=O)C3CCC3)n(C/C=C/Cn3c(NC(=O)C4CCC4)nc4cc(C(N)=O)cc(O)c43)c12 [Compound 57] | > 10 | 
COc1cc(C(N)=O)cc2nc(NC(=O)c3cc(C)no3)n(C/C=C/Cn3c(NC(=O)c4cc(C)no4)nc4cc(C(N)=O)cc(O)c43)c12 [Compound 58] | > 10 | 
COc1cc(C(N)=O)cc2nc(NC(=O)c3ccno3)n(C/C=C/Cn3c(NC(=O)c4ccno4)nc4cc(C(N)=O)cc(O)c43)c12 [Compound 59] | > 10 | 
COc1cc(C(N)=O)cc2nc(NC(=O)c3cc(C)ns3)n(C/C=C/Cn3c(NC(=O)c4cc(C)ns4)nc4cc(C(N)=O)cc(O)c43)c12 [Compound 60] | > 10 | 
CCn1nc(C)cc1C(=O)Nc1nc2cc(C(=O)OC)cc(O)c2n1C/C=C/Cn1c(NC(=O)c2cc(C)nn2CC)nc2cc(C(=O)OC)cc(OC)c21 [Compound 62, methyl (E)-2-(1-ethyl-3-methyl-1H-pyrazole-5-carboxamido)-1-(4-(2-(1-ethyl-3-methyl-1H-pyrazole-5-carboxamido)-7-hydroxy-5-(methoxycarbonyl)-1H-benzo[d]imidazol-1-yl)but-2-en-1-yl)-7-methoxy-1H-benzo[d]imidazole-5-carboxylate] | > 10 | 
CCn1nc(C)cc1C(=O)Nc1nc2cc(C(=O)OC)cc(OC)c2n1C/C=C/Cn1c(NC(=O)c2cc(C)nn2CC)nc2cc(C(=O)OC)cc(OCCCN(C)C(=O)CCN3C(=O)C=CC3=O)c21 [Compound 66, methyl (E)-7-(3-(3-(2,5-dioxo-2,5-dihydro-1H-pyrrol-1-yl)-N-methylpropanamido)propoxy)-2-(1-ethyl-3-methyl-1H-pyrazole-5-carboxamido)-1-(4-(2-(1-ethyl-3-methyl-1H-pyrazole-5-carboxamido)-7-methoxy-5-(methoxycarbonyl)-1H-benzo[d]imidazol-1-yl)but-2-en-1-yl)-1H-benzo[d]imidazole-5-carboxylate] |  | >10,000 ng/mL
CCn1nc(C)cc1C(=O)Nc1nc2cc(C(=O)OC)cc(OC)c2n1C/C=C/Cn1c(NC(=O)c2cc(C)nn2CC)nc2cc(C(=O)OC)cc(OCCCN(C)C(=O)OCc3ccc(O[C@@H]4O[C@H](C(=O)O)[C@@H](O)[C@H](O)[C@H]4O)cc3NC(=O)CCNC(=O)CCN3C(=O)C=CC3=O)c21 [Compound 67] |  | >10,000 ng/mL
CCn1nc(C)cc1C(=O)Nc1nc2cc(C(=O)O)cc(OC)c2n1C/C=C/Cn1c(NC(=O)c2cc(C)nn2CC)nc2cc(C(=O)O)cc(OCCCN(C)C(=O)CCN3C(=O)C=CC3=O)c21 [Compound 68, (E)-1-(4-(5-carboxy-2-(1-ethyl-3-methyl-1H-pyrazole-5-carboxamido)-7-methoxy-1H-benzo[d]imidazol-1-yl)but-2-en-1-yl)-7-(3-(3-(2,5-dioxo-2,5-dihydro-1H-pyrrol-1-yl)-N-methylpropanamido)propoxy)-2-(1-ethyl-3-methyl-1H-pyrazole-5-carboxamido)-1H-benzo[d]imidazole-5-carboxylic acid] |  | >10,000 ng/mL

More lines, main results first:

EC50 [µM] | SMILES | EC50 (ng/mL)
> 10 | COc1cc(C(N)=O)cc2nc(NC(=O)c3nc(C)cs3)n(C/C=C/Cn3c(NC(=O)c4nc(C)cs4)nc4cc(C(N)=O)cc(O)c43)c12 [Compound 38] | 
> 10 | COc1cc(C(N)=O)cc2nc(NC(=O)c3cc(C)on3)n(C/C=C/Cn3c(NC(=O)c4cc(C)on4)nc4cc(C(N)=O)cc(O)c43)c12 [Compound 39] | 
> 10 | COc1cc(C(N)=O)cc2nc(NC(=O)c3cc(C)sn3)n(C/C=C/Cn3c(NC(=O)c4cc(C)sn4)nc4cc(C(N)=O)cc(O)c43)c12 [Compound 40] | 
> 10 | CCn1cccc1C(=O)Nc1nc2cc(C(N)=O)cc(O)c2n1C/C=C/Cn1c(NC(=O)c2cccn2CC)nc2cc(C(N)=O)cc(OC)c21 [Compound 41] | 
> 10 | COc1cc(C(N)=O)cc2nc(NC(=O)c3cccnn3)n(C/C=C/Cn3c(NC(=O)c4cccnn4)nc4cc(C(N)=O)cc(O)c43)c12 [Compound 42] | 
> 10 | COc1cc(C(N)=O)cc2nc(NC(=O)c3ccnnc3)n(C/C=C/Cn3c(NC(=O)c4ccnnc4)nc4cc(C(N)=O)cc(O)c43)c12 [Compound 43] | 
> 10 | COc1cc(C(N)=O)cc2nc(NC(=O)c3ncccn3)n(C/C=C/Cn3c(NC(=O)c4ncccn4)nc4cc(C(N)=O)cc(O)c43)c12 [Compound 44] | 
> 10 | COc1cc(C(N)=O)cc2nc(NC(=O)c3ccncn3)n(C/C=C/Cn3c(NC(=O)c4ccncn4)nc4cc(C(N)=O)cc(O)c43)c12 [Compound 45] | 
> 10 | COc1cc(C(N)=O)cc2nc(NC(=O)c3cnccn3)n(C/C=C/Cn3c(NC(=O)c4cnccn4)nc4cc(C(N)=O)cc(O)c43)c12 [Compound 46] | 
> 10 | COc1cc(C(N)=O)cc2nc(NC(=O)Cn3cccn3)n(C/C=C/Cn3c(NC(=O)Cn4cccn4)nc4cc(C(N)=O)cc(O)c43)c12 [Compound 47] | 
> 10 | COc1cc(C(N)=O)cc2nc(NC(=O)Cn3nc(C)cc3C)n(C/C=C/Cn3c(NC(=O)Cn4nc(C)cc4C)nc4cc(C(N)=O)cc(O)c43)c12 [Compound 48] | 
> 10 | COc1cc(C(N)=O)cc2nc(NC(=O)C(C)n3cc(Cl)cn3)n(C/C=C/Cn3c(NC(=O)C(C)n4cc(Cl)cn4)nc4cc(C(N)=O)cc(O)c43)c12 (centres unmarked) [Compound 49] | 
> 10 | COc1cc(C(N)=O)cc2nc(NC(=O)c3cc(Cl)nn3C)n(C/C=C/Cn3c(NC(=O)c4cc(Cl)nn4C)nc4cc(C(N)=O)cc(O)c43)c12 [Compound 50] | 
> 10 | COc1cc(C(=O)Nc2nc3cc(C(N)=O)cc(O)c3n2C/C=C/Cn2c(NC(=O)c3cc(OC)nn3C)nc3cc(C(N)=O)cc(OC)c32)n(C)n1 [Compound 51] | 
> 10 | CCn1nc(C(F)(F)F)cc1C(=O)Nc1nc2cc(C(N)=O)cc(O)c2n1C/C=C/Cn1c(NC(=O)c2cc(C(F)(F)F)nn2CC)nc2cc(C(N)=O)cc(OC)c21 [Compound 52] | 
2.51 | CCn1nc(C)cc1C(=O)Nc1nc2cc(C(=O)O)cc(O)c2n1C/C=C/Cn1c(NC(=O)c2cc(C)nn2CC)nc2cc(C(=O)O)cc(OC)c21 [Compound 63, (E)-1-(4-(5-carboxy-2-(1-ethyl-3-methyl-1H-pyrazole-5-carboxamido)-7-hydroxy-1H-benzo[d]imidazol-1-yl)but-2-en-1-yl)-2-(1-ethyl-3-methyl-1H-pyrazole-5-carboxamido)-7-methoxy-1H-benzo[d]imidazole-5-carboxylic acid] | 
1.16 | CCn1nc(C)cc1C(=O)Nc1nc2cc(C(=O)OC)cc(OC)c2n1C/C=C/Cn1c(NC(=O)c2cc(C)nn2CC)nc2cc(C(=O)OC)cc(OCCCNC)c21 [Compound 66b] | 
